{
  "source": "patent US20020197269A1",
  "about": "“Pharmaceutical composition for immunomodulation and preparation of vaccines” (CISTEM BIOTECHNOLOGIES GMBH, priority 2000, published 2002)",
  "tested_on": "MC1R-peptide (WGPFFLHL) specific IFN-γ-producing cells",
  "experiment": "IFN-γ-ELISPOT after footpad injection with MC1R-peptide (Example 3)",
  "assay_type": "in vivo, Mice C57B1/6",
  "details": "co-injected with MC1R-peptide 300 μg/mouse into hind footpads; 4 days after injection; CpG-ODN 5 nmol/mouse",
  "note": "In the oligonucleotide strings, read from the 5' end, every base follows the letter of its sugar. An asterisk marks phosphorothioate; unmarked linkages are phosphodiester. Other units and linkages are bracketed, terminal groups are in braces. A string of capitals states the bases alone. d = 2'-deoxy (DNA)",
  "data": [
    {"substance": "CpG 1668: thiophosphate substituted ODNs containing a CpG motif: TCCATGACGTTCCTGATGCT (DNA dT*dC*dC*dA*dT*dG*dA*dC*dG*dT*dT*dC*dC*dT*dG*dA*dT*dG*dC*dT)", "values": [
      {"measurement": "peptide-specific IFN-γ-producing cells / peptide-specific response (IFN-γ-ELISPOT)", "result": "low numbers"}
    ]}
  ]
}
